Data from patent US9649381B2, “Transporter protein-coupled nanodevices for targeted drug delivery” (Wayne State University, priority 2013, dated 2017).

Key:
C2Hx rats = experiment: EMG recording of diaphragm recovery in C2Hx rats after injection into the paralyzed hemidiaphragm; format: in vivo, rat
Excerpt: In one case, rats with hemisection at C2Hx, hereafter “C2Hx rats,” have undergone surgical treatment to disrupt the bulbospinal pathway from the rVRG to the PN, the primary source for descending respiratory drive. Paralysis of the ipsilateral diaphragm muscle in C2Hx confirmed by electomygram (EMG). In such rats, the latent crossed phrenic pathway remains intact, as axons decussate caudal to injury.
In one example, a nanodevice with a targeting portion of WGA-HRP and a molecule to be delivered of pro-THP, the pro-THP being bound to the connecting portion by a slow drug release linker, was administered by injection into the paralyzed hemidiaphragms of a cohort of 11 C2-hemisected rats. About 50 μl of the nanodevice, which contained about 0.275 μg of pro-THP, was injected. Five 10 μl injections were conducted at even spatial intervals to spread the conjugate throughout the hemidiaphragm. This constitutes a single round of injections and thus considered to be a one-time, single-injection type of treatment.
FIG. 3 illustrates a trial of C2Hx rats that have been treated with a WGA-HRP/gold/pro-theophylline nanodevice. In each plot, the Y-axis 301a/b/c/d represents a voltage signal and the X-axis 302/a/b/c/d represents time, increasing from left to right. Two different types of plots are shown in FIG. 3; FIG. 3A-C are EMG recordings and FIG. 3D is a phrenic nerve recording. […]

[1] = tested on: patients with cervical spinal cord injury; settings: cited from earlier work
[2] = tested on: rat spinal cord injury model animals; experiment: Chronic systemic drug administration, persistence of hemidiaphragm recovery in spinal cord injury model animals; format: in vivo; settings: multiple systemic administrations over 3 days
Excerpt: Chronic administrations of theophylline, however, induce plasticity in the respiratory pathways which results in recovery that persists for days. Specifically, three days of orally administered theophylline three times per day (for a total of nine doses) was sufficient to bring about and maintain respiratory recovery that persisted for about 3 days, about 7 days, about 12 days, and about 30 days after the last drug administration in separate groups of animals.
Theophylline is both an adenosine receptor antagonist and a phosphodiesterase (PDE) inhibitor. Chronic administration of rolipram (a PDE-4 specific inhibitor), pentoxifylline (a general PDE inhibitor), or DPCPX (an adenosine A1 receptor antagonist) also induce persistent functional recovery of a paralyzed hemidiaphragm in rat spinal cord injury model animals for as long as 10 days, the longest interval studied, after the animal is last exposed to the drugs. Although rolipram and pentoxifylline have been approved for clinical use, these “first generation” PDE inhibitors can induce the same side effects as theophylline, including nausea and vomiting.

SMILES	dosage required for recovery in a rat (C2Hx rats; single administration, studies like FIG. 3A-D)	left diaphragm EMG activity ([1]; patient with asymmetrical cervical spinal cord injury, acute and chronic theophylline)	increase in diaphragm EMG activity, maximum ([1]; tetraplegic patient, ventilator dependent, intravenous, increasing doses over one day, therapeutic levels)	recovery after multiple systemic administrations [2]	amount of theophylline required to realize recovery (C2Hx rats; C2Hx rats, systemic treatment)
CCCn1c(=O)c2[nH]c(C3CCCC3)nc2n(CCC)c1=O [DPCPX, 1,3-dipropyl-8-cyclopentylxanthine]	0.093 microgram				
Cn1c(=O)c2[nH]cnc2n(C)c1=O [theophylline]		markedly increased	50%	long-lasting recovery	15 mg/kg
